In the NIST ThermoML archive (doi:10.1016/j.jct.2017.09.012):
Numbers after ± are expanded uncertainties.

Test: osmotic coefficient (dimensionless); mn = molality of the nth substance listed, in mol/kg
Conditions: 101 kPa, Liquid, isopiestic method

O=S(=O)([O-])[O-].[Zn+2] [zinc sulfate] + O
osmotic coefficient (288.15 K, m1 = 3.567): 1.09 ± 0.03 | osmotic coefficient (288.15 K, m1 = 3.787): 1.19 ± 0.033 | osmotic coefficient (288.15 K, m1 = 3.997): 1.29 ± 0.03 | osmotic coefficient (298.15 K, m1 = 3.223): 0.935 ± 0.009 | osmotic coefficient (298.15 K, m1 = 3.836): 1.16 ± 0.013 | osmotic coefficient (308.15 K, m1 = 3.614): 1.019 ± 0.005 | osmotic coefficient (308.15 K, m1 = 3.962): 1.144 ± 0.009 | osmotic coefficient (308.15 K, m1 = 4.295): 1.27 ± 0.015 | osmotic coefficient (313.15 K, m1 = 4.014): 1.133 ± 0.007 | osmotic coefficient (313.15 K, m1 = 4.25): 1.217 ± 0.009 | osmotic coefficient (313.15 K, m1 = 4.47): 1.302 ± 0.013
